In the oligonucleotide strings, read from the 5' end, every base follows the letter of its sugar. An asterisk marks phosphorothioate; unmarked linkages are phosphodiester. Other units and linkages are bracketed, terminal groups are in braces. A string of capitals states the bases alone. e = 2'-O-(2-methoxyethyl) (MOE); [5mC] = 5-methylcytosine; d = 2'-deoxy (DNA)
What was measured:
[1] = system: differentiated adipocytes; test: Hallmark genes and triglycerides in differentiated adipocytes; format: cell-based, human; settings: Table 28; differentiated adipocytes transfected day nine post-differentiation; 250 nM oligonucleotide
Source text: The effect of the oligomeric compounds of the present invention targeting miRNAs on the expression of markers of cellular differentiation was examined in differentiated adipocytes.
As previously described, the HSL, aP2, Glut4, and PPARγ genes play important rolls in the uptake of glucose and the metabolism and utilization of fats. Also as previously described, an increase in triglyceride content is another well-established marker for adipocyte differentiation. Human white preadipocytes (Zen-Bio Inc., Research Triangle Park, N.C.) were grown in preadipocyte media (ZenBio Inc.). After the cells reached confluence (approximately three days), they were exposed to differentiation media (Zen-Bio, Inc.) containing a PPAR-γ agonist, IBMX, dexamethasone, and insulin for three days. Cells were then fed Adipocyte Medium (Zen-Bio, Inc.), which was replaced at 2 to 3 day intervals. One day before transfection, 96-well plates were seeded with 3000 cells/well. Cells were then transfected on day nine post-differentiation, according to standard published procedures with 250 nM oligonucleotide in LIPOFECTIN™ (Invitrogen Corporation, Carlsbad, Calif.) (Monia et al., J. Biol. Chem. 1993 268(19):14514-22). Oligomeric compounds were tested in triplicate on each 96-well plate, and the effect of TNF-α, known to inhibit adipocyte differentiation, was also measured in triplicate. Oligomeric compound treatments and transfectant-only negative controls may be measured up to six times per plate. On day twelve post-differentiation, cells were washed and lysed at room temperature, and the expression of the four hallmark genes, HSL, aP2, Glut4, and PPARγ, as well as triglyceride (TG) accumulation were measured in adipocytes transfected with the uniform 2′-MOE phosphorothioate (PS) previously described in Example 13 as well as the chimeric gapmer oligomeric compounds targeting the mir-143 miRNA and the mir-143 pri-miRNA described in Example 16. On day twelve post-differentiation, cells were lysed in a guanadinium-containing buffer and total RNA was harvested. The amount of total RNA in each sample was determined using a Ribogreen Assay (Molecular Probes, Eugene, Oreg.). Real-time PCR was performed on the total RNA using primer/probe sets for the adipocyte differentiation hallmark genes Glut4, HSL, aP2, and PPARγ. Triglyceride levels as well as mRNA levels for each of the four adipocyte differentiation hallmark genes are expressed relative to control levels (control=treatment with ISIS-29848 (SEQ ID NO: 737)).

IGFBP-1 = IGFBP-1 mRNA expression in HepG2 cells; format: cell-based, human; settings: for IGFBP1 mRNA: four hours, UTC = 100
[2] = system: BJ, B16-F10, T47D, T47Dp53 and HeLa cells; test: Cell cycle assay (propidium iodide flow cytometry), cell line panel; format: cell-based; settings: for G1 (percentage of cells in phase of the cell cycle) / G2/M (percentage of cells in phase of the cell cycle) / S (percentage of cells in phase of the cell cycle) / SubG1 (percentage of cells in phase of the cell cycle) / aneuploid (percentage of cells): 150 nM oligomeric compound, 4.5 μg/ml LIPOFECTIN, after 72 hours, propidium iodide flow cytometry
preadipocytes = test: Caspase assay in preadipocytes; format: cell-based, human; settings: for Fold Increase over UTC (caspase activity): untreated control set equal to 1.0
Source text: The effect of oligomeric compounds of the present invention targeting miRNAs was examined in preadipocytes (Zen-Bio, Inc., Research Triangle Park, N.C.) using the fluorometric caspase assay previously described in Example 11.

[3] = Experiment 1, basal (no insulin), HepG2, 100 nM oligomeric compound
[4] = Experiment 2, 1 nM insulin treated, HepG2, 100 nM oligomeric compound
[5] = HepG2 cells, Experiment 1, basal (no insulin)

327876 (antisense eA*eA*e[5mC]*eA*e[5mC]*eT*eG*eA*eT*eT*eT*e[5mC]*eA*eA*eA*eT*eG*eG*eT*eG*e[5mC]*eT*eA) [compound 327876]
Glut4 [1]: 3.53
HSL [1]: 0.81
PPAR gamma [1]: 1.28
TG [1]: 1.16
aP2 [1]: 0.67
IGFBP-1 (% UTC) (IGFBP-1; [3]): 93 % UTC
IGFBP-1 (% UTC) (IGFBP-1; [4]): 118 % UTC

327878 (antisense e[5mC]*eT*eA*eG*eT*eG*eG*eT*e[5mC]*e[5mC]*eT*eA*eA*eA*e[5mC]*eA*eT*eT*eT*e[5mC]*eA*e[5mC]) [compound 327878]
Glut4 [1]: 0.17
HSL [1]: 0.19
PPAR gamma [1]: 0.85
TG [1]: 1.08
aP2 [1]: 0.13
IGFBP-1 (% UTC) (IGFBP-1; [3]): 162 % UTC
IGFBP-1 (% UTC) (IGFBP-1; [4]): 185 % UTC
G1 (percentage of cells in phase of the cell cycle) [2]: 39.1%
G2/M (percentage of cells in phase of the cell cycle) [2]: 20%
S (percentage of cells in phase of the cell cycle) [2]: 40.8%
SubG1 (percentage of cells in phase of the cell cycle) [2]: 17.3%
aneuploid (percentage of cells) [2]: 11.9%

327880 (antisense eA*e[5mC]*eA*eA*eA*eT*eT*e[5mC]*eG*eG*eT*eT*e[5mC]*eT*eA*e[5mC]*eA*eG*eG*eG*eT*eA) [compound 327880]
Glut4 [1]: 0.76
HSL [1]: 0.93
PPAR gamma [1]: 1.86
TG [1]: 1.12
aP2 [1]: 1.14
IGFBP-1 (% UTC) (IGFBP-1; [3]): 137 % UTC
IGFBP-1 (% UTC) (IGFBP-1; [4]): 136 % UTC

327892 (antisense eA*e[5mC]*eT*eT*eT*e[5mC]*eG*eG*eT*eT*eA*eT*e[5mC]*eT*eA*eG*e[5mC]*eT*eT*eT*eA) [compound 327892]
Glut4 [1]: 0.42
HSL [1]: 0.62
PPAR gamma [1]: 1.01
TG [1]: 1.23
aP2 [1]: 0.81
IGFBP-1 (% UTC) (IGFBP-1; [3]): 108 % UTC
IGFBP-1 (% UTC) (IGFBP-1; [4]): 139 % UTC

327893 (antisense eA*eA*e[5mC]*e[5mC]*eA*e[5mC]*eA*e[5mC]*eA*eA*e[5mC]*e[5mC]*eT*eA*e[5mC]*eT*eA*e[5mC]*e[5mC]*eT*e[5mC]*eA) [compound 327893]
Fold Increase over UTC (caspase activity) (preadipocytes): 1.3 fold over UTC
IGFBP1 mRNA (IGFBP-1; [5]): 107

327911 (antisense eG*e[5mC]*eT*eA*e[5mC]*e[5mC]*eT*eG*e[5mC]*eA*e[5mC]*eT*eG*eT*eA*eA*eG*e[5mC]*eA*e[5mC]*eT*eT*eT*eT) [compound 327911]
IGFBP1 mRNA expression (IGFBP-1; Experiment 2, insulin treated: HepG2 cells transfected with oligomeric compound, 1 nM insulin for four hours, UTC + 1 nM insulin = 100): 160
IGFBP1 mRNA (IGFBP-1; [5]): 157
G1 (percentage of cells in phase of the cell cycle) [2]: 49.9%
G2/M (percentage of cells in phase of the cell cycle) [2]: 20%
S (percentage of cells in phase of the cell cycle) [2]: 30.1%
SubG1 (percentage of cells in phase of the cell cycle) [2]: 10.9%
aneuploid (percentage of cells) [2]: 16.5%

327913 (antisense eA*eA*e[5mC]*e[5mC]*eG*eA*eT*eT*eT*e[5mC]*eA*eA*eA*eT*eG*eG*eT*eG*e[5mC]*eT*eA*eG) [compound 327913]
Glut4 [1]: 1.52
HSL [1]: 1.09
PPAR gamma [1]: 1.29
TG [1]: 1.12
aP2 [1]: 1.05
IGFBP-1 (% UTC) (IGFBP-1; [3]): 123 % UTC
IGFBP-1 (% UTC) (IGFBP-1; [4]): 147 % UTC

327931 (antisense eA*eA*e[5mC]*e[5mC]*eA*eT*eA*e[5mC]*eA*eA*e[5mC]*e[5mC]*eT*eA*e[5mC]*eT*eA*e[5mC]*e[5mC]*eT*e[5mC]*eA) [compound 327931]
Fold Increase over UTC (caspase activity) (preadipocytes): 1.5 fold over UTC

327933 (antisense eA*eA*eG*eG*eG*eA*eT*eT*e[5mC]*e[5mC]*eT*eG*eG*eG*eA*eA*eA*eA*e[5mC]*eT*eG*eG*eA*e[5mC]) [compound 327933]
Glut4 [1]: 2.12
HSL [1]: 1.30
PPAR gamma [1]: 1.60
TG [1]: 1.63
aP2 [1]: 1.58
IGFBP-1 (% UTC) (IGFBP-1; [3]): 125 % UTC
IGFBP-1 (% UTC) (IGFBP-1; [4]): 179 % UTC
G1 (percentage of cells in phase of the cell cycle) [2]: 49.6%
G2/M (percentage of cells in phase of the cell cycle) [2]: 19.1%
S (percentage of cells in phase of the cell cycle) [2]: 31.3%
SubG1 (percentage of cells in phase of the cell cycle) [2]: 10.2%
aneuploid (percentage of cells) [2]: 15.9%

327954 (antisense eA*e[5mC]*eA*eA*eA*eG*eT*eT*e[5mC]*eT*eG*eT*eG*eA*eT*eG*e[5mC]*eA*e[5mC]*eT*eG*eA) [compound 327954]
Glut4 [1]: 0.61
HSL [1]: 1.35
PPAR gamma [1]: 1.46
TG [1]: 1.46
aP2 [1]: 1.23
IGFBP-1 (% UTC) (IGFBP-1; [3]): 118 % UTC
IGFBP-1 (% UTC) (IGFBP-1; [4]): 120 % UTC

327967 (antisense eA*e[5mC]*eT*eG*eT*eA*e[5mC]*eA*eA*eA*e[5mC]*eT*eA*e[5mC]*eT*eA*e[5mC]*e[5mC]*eT*e[5mC]*eA) [compound 327967]
Fold Increase over UTC (caspase activity) (preadipocytes): 1.5 fold over UTC

328382 (e[5mC]*eA*eG*eA*e[5mC]*dT*d[5mC]*d[5mC]*d[5mC]*dA*dA*d[5mC]*dT*dG*dA*e[5mC]*e[5mC]*eA*eG*eA) [compound 328382]
Glut4 [1]: 0.75
HSL [1]: 0.53
PPAR gamma [1]: 0.97
TG [1]: 1.33
aP2 [1]: 0.92
G1 (percentage of cells in phase of the cell cycle) [2]: 59.8%
G2/M (percentage of cells in phase of the cell cycle) [2]: 14.4%
S (percentage of cells in phase of the cell cycle) [2]: 25.7%
SubG1 (percentage of cells in phase of the cell cycle) [2]: 2.9%
aneuploid (percentage of cells) [2]: 14.8%

328691 (e[5mC]*e[5mC]*e[5mC]*e[5mC]*eA*dT*d[5mC]*dT*dT*dA*dG*d[5mC]*dA*dT*d[5mC]*eT*eA*eA*eG*eG) [compound 328691]
IGFBP-1 (% UTC) (IGFBP-1; Experiment 3, basal (no insulin), HepG2 cells, 48 hours post-transfection): 105 % UTC
IGFBP-1 (% UTC) (IGFBP-1; Experiment 4, insulin-sensitization: HepG2 cells treated with 1 nM insulin for four hours, 48 h post-transfection, mRNA by real-time PCR): 101 % UTC
G1 (percentage of cells in phase of the cell cycle) [2]: 60.5%
G2/M (percentage of cells in phase of the cell cycle) [2]: 15.1%
S (percentage of cells in phase of the cell cycle) [2]: 24.4%
SubG1 (percentage of cells in phase of the cell cycle) [2]: 7.7%
aneuploid (percentage of cells) [2]: 16.6%

338664 (antisense e[5mC]*eA*eG*eA*e[5mC]*eT*e[5mC]*e[5mC]*e[5mC]*eA*eA*e[5mC]*eT*eG*eA*e[5mC]*e[5mC]*eA*eG*eA) [compound 338664]
Glut4 [1]: 1.08
HSL [1]: 1.01
PPAR gamma [1]: 1.06
TG [1]: 1.72
aP2 [1]: 0.77
IGFBP-1 (% UTC) (IGFBP-1; [3]): 90 % UTC
IGFBP-1 (% UTC) (IGFBP-1; [4]): 100 % UTC

340927 (antisense eT*eG*eA*eG*e[5mC]*dT*dA*d[5mC]*dA*dG*dT*dG*d[5mC]*dT*dT*e[5mC]*eA*eT*e[5mC]*eT*e[5mC]*eA) [compound 340927]
Glut4 [1]: 0.96
HSL [1]: 0.64
PPAR gamma [1]: 1.21
TG [1]: 1.61
aP2 [1]: 0.71
IGFBP-1 (% UTC) (IGFBP-1; [3]): 201 % UTC
IGFBP-1 (% UTC) (IGFBP-1; [4]): 285 % UTC

341803 (antisense CCACACACTTCCTTACATTCCA; all 2'-MOE, all phosphorothioate, methylation of C not given here) [compound 341803]
IGFBP1 mRNA (IGFBP-1; [5]): 107

341804 (antisense ATCTGCACTGTCAGCACTTT; all 2'-MOE, all phosphorothioate, methylation of C not given here) [compound 341804]
IGFBP1 mRNA (IGFBP-1; [5]): 162

341805 (antisense ACCCTTATCAGTTCTCCGTCCA; all 2'-MOE, all phosphorothioate, methylation of C not given here) [compound 341805]
IGFBP1 mRNA (IGFBP-1; [5]): 105

341806 (antisense GCCAATATTTCTGTGCTGCTA; all 2'-MOE, all phosphorothioate, methylation of C not given here) [compound 341806]
IGFBP1 mRNA (IGFBP-1; [5]): 128

341807 (antisense CTGGGACTTTGTAGGCCAGTT; all 2'-MOE, all phosphorothioate, methylation of C not given here) [compound 341807]
IGFBP1 mRNA (IGFBP-1; [5]): 129

TGAGCTACAGTGCTTCATCTCA [ISIS 327901] (chemistry not given here) [uniform 2′-MOE PS; targets mir-143]
caspase activity (preadipocytes): does not result in a significant increase in caspase activity
percentage of cells in the G2/M phase ([2]; 150 nM, 72 hours (Table 29)): increased percentage of cells in the G2/M phase

Reference: US8178506B2, “Oligomeric compounds and compositions for use in modulation of small non-coding RNAs” (Regulus Therapeutics Inc., priority 2003, dated 2012)
